This is an account of results in ChEMBL document CHEMBL1127205, “Synthesis and anticonvulsant activity of 3-arylamino-4-aryl-5-(N-4-chlorophenylthiocarbamido)-1,2,4-thiadiazoles” (Bioorg Med Chem Lett, 1993).

The test system of data set [1] is Rattus norvegicus. The experiment in a line: Effective dose was measured in rats using maximal electroshock seizure test(ip); showed no protection up to 120 mg/kg (i.p. dose). The class given is functional, organism-based. Also on record: dose 120 mg/kg. For orientation: In the maximal electroshock model the usual endpoint is tonic extension of the hind limbs.
The subject of data set [2] is Rattus norvegicus. The experiment in a line: Effective dose was measured in rats using maximal electroshock seizure test(ip); showed no protection up to 100 mg/kg (i.p. dose). The class given is functional, organism-based. Also on record: dose 100 mg/kg.
Data set [3] is filed under the species Rattus norvegicus. Description: % protection was measured in rats using maximal electroshock seizure test. The class given is functional.
Data set [4] has as its system Rattus norvegicus. The experiment in a line: % protection was measured in rats using subcutaneous pentylenetetrazole seizure test. The class given is functional. Also on record: concentration or dose not given beside the values.
Data set [5] concerns Rattus norvegicus. Description: Effective dose was measured in rats using subcutaneous pentylenetetrazole seizure test. The conditions noted are these: sc. The class given is functional.
Data set [6] relates to Rattus norvegicus. The experiment in a line: Sleeping time was determined in rats after administration of compound; NS non-significant. The class given is functional.
Data set [7] can be described thus: Acute toxicity was measured in rats using maximal electroshock seizure test. The following applies: rat, in vivo.
For data set [8], the species on record is Rattus norvegicus. Description: Effective dose was measured in rats using maximal electroshock seizure test. Type of data set: functional.
For data set [9], the species on record is Rattus norvegicus. The experiment in a line: The activity was measured by using barbiturate hypnosis potentiation effect test. Type of data set: functional.
Data set [10] can be described thus: Tested for therapeutic index of compound (LD50/MES ED50). The following applies: rat; read-out: TI.
Data set [11] concerns Rattus norvegicus. The experiment in a line: Sleeping time was determined in rats after administration of compound; non-significant. Type of data set: functional.
The species entered for data set [12] is Rattus norvegicus. Description: % protection was measured in rats using maximal electroshock seizure test; p<0.05. Type of data set: functional.
Data set [13] relates to Rattus norvegicus. The experiment in a line: % protection was measured in rats using subcutaneous pentylenetetrazole seizure test; p<0.05. The class given is functional.
Data set [14] is filed under the species Rattus norvegicus. The experiment in a line: % protection was measured in rats using maximal electroshock seizure test; p<0.01. Type of data set: functional.
Data set [15] concerns Rattus norvegicus. The experiment in a line: Sleeping time was determined in rats after administration of compound; p<0.05. The class given is functional.
The subject of data set [16] is Rattus norvegicus. Description: Sleeping time was determined in rats at 30 mg/kg intraperitoneal dose. The class given is functional.

Consider `COc1cccc(Nc2ns/c(=N\C(S)=N\c3ccc(Cl)cc3)n2-c2cccc(OC)c2)c1`, for which the ED50 result in the data set on Rattus norvegicus [1] and with Rattus norvegicus [2] was “no protection up to 100 mg/kg” throughout. Moreover, the Protection in the data set filed under Rattus norvegicus [3] and in the data set with Rattus norvegicus [4] was 0% throughout.
Consider `COc1ccccc1Nc1ns/c(=N\C(S)=N\c2ccc(Cl)cc2)n1-c1ccccc1OC`, for which the ED50 entry with Rattus norvegicus [1] and with Rattus norvegicus [2] was “no protection up to 100 mg/kg” in each case. The Protection in the data set filed under Rattus norvegicus [3] and with Rattus norvegicus [4] was 0% throughout.
In the case of `Cc1ccccc1Nc1ns/c(=N\C(S)=N\c2ccc(Cl)cc2)n1-c1ccccc1C`, the ED50 result in the data set with Rattus norvegicus [1] and with Rattus norvegicus [2] was “no protection up to 100 mg/kg” throughout. The Protection in the data set listed under Rattus norvegicus [3] and with Rattus norvegicus [4] was 0% in each case.
As for `COc1ccc(Nc2ns/c(=N\C(S)=N\c3ccc(Cl)cc3)n2-c2ccc(OC)cc2)cc1`, the values for the ED50 in the data set on Rattus norvegicus [5] and in the data set filed under Rattus norvegicus [8] were 150 mg/kg and 20.3 mg/kg, respectively. In addition, the Sleeping time in the data set with Rattus norvegicus [6] is 67.3 min. In data set [7], this compound came in with an LD50 of 210 mg/kg. Also, the Protection in the data set listed under Rattus norvegicus [3] is on record as 50%; in the data set with Rattus norvegicus [4], 0%. Further, the Hypnosis potentiation in the data set filed under Rattus norvegicus [9] was determined as 3.14%. For the same compound, the selectivity ratio in data set [10] is 10.3.
Turning to `Cc1cccc(Nc2ns/c(=N\C(S)=N\c3ccc(Cl)cc3)n2-c2cccc(C)c2)c1`, the ED50 entry in the data set on Rattus norvegicus [1] and in the data set on Rattus norvegicus [2] was “no protection up to 100 mg/kg” throughout. Moreover, the Protection in the data set filed under Rattus norvegicus [3] and in the data set with Rattus norvegicus [4] was 0% each time.
As for `S=C(/N=c1\snc(Nc2ccccc2)n1-c1ccccc1)Nc1ccc(Cl)cc1`, the LD50 in [7] was determined as 250 mg/kg. Also, the Protection came to 25% in the data set filed under Rattus norvegicus [3] and 0% in the data set on Rattus norvegicus [4]. The compound further registered an ED50 in the data set filed under Rattus norvegicus [8] of 76.5 mg/kg. In addition, the Hypnosis potentiation in the data set listed under Rattus norvegicus [9] is 4.98%. The Sleeping time in the data set with Rattus norvegicus [11] is recorded as 68.5 min. In addition, in data set [10], the selectivity ratio came to 3.26.
Regarding `S=C(/N=c1\snc(Nc2cccc(Cl)c2)n1-c1cccc(Cl)c1)Nc1ccc(Cl)cc1`, the ED50 stood at 26.2 mg/kg in the data set on Rattus norvegicus [5] and 17.5 mg/kg in the data set listed under Rattus norvegicus [8]. In data set [7], the LD50 was found to be 120 mg/kg. In addition, the Protection in the data set listed under Rattus norvegicus [12] and in the data set with Rattus norvegicus [4] was 75% throughout. Moreover, in the data set filed under Rattus norvegicus [9], the Hypnosis potentiation worked out at 5.97%. Moreover, in the data set with Rattus norvegicus [11], the Sleeping time was 69.15 min. Moreover, the selectivity ratio in data set [10] was 6.85.
As for `S=C(/N=c1\snc(Nc2ccccc2Cl)n1-c1ccccc1Cl)Nc1ccc(Cl)cc1`, the figures for the ED50 with Rattus norvegicus [5] and in the data set listed under Rattus norvegicus [8] were 35.1 mg/kg and 12 mg/kg, respectively. The compound also returned a Sleeping time with Rattus norvegicus [6] of 78.68 min. This compound gave an LD50 in data set [7] of 175 mg/kg. In addition, the results for the Protection in the data set listed under Rattus norvegicus [12] and in the data set on Rattus norvegicus [4] were 75% and 0%, respectively. Further, the Hypnosis potentiation in the data set filed under Rattus norvegicus [9] was found to be 20.58%. The selectivity ratio in data set [10] was found to be 14.6.
On to `S=C(/N=c1\snc(Nc2ccc(Cl)cc2)n1-c1ccc(Cl)cc1)Nc1ccc(Cl)cc1`, for which the Protection in the data set on Rattus norvegicus [13] stood at 75%; in the data set listed under Rattus norvegicus [14] it was 87.5%. Also, the figures for the ED50 in the data set on Rattus norvegicus [5] and in the data set listed under Rattus norvegicus [8] were 22.1 mg/kg and 10 mg/kg, respectively. In data set [7], this compound gave an LD50 of 117 mg/kg. In addition, the Hypnosis potentiation in the data set listed under Rattus norvegicus [9] was found to be 11.58%. The compound further returned a Sleeping time in the data set on Rattus norvegicus [11] of 72.81 min. In [10], the selectivity ratio was determined as 11.7.
As to `O=C1NC(=O)C(c2ccccc2)(c2ccccc2)N1` [PHENYTOIN], the ED50 amounted to 100 mg/kg in the data set on Rattus norvegicus [5] and 9.5 mg/kg in the data set filed under Rattus norvegicus [8]. Moreover, the LD50 in data set [7] is 65.5 mg/kg. Further, the Protection was 75% in the data set filed under Rattus norvegicus [12] and 37.5% in the data set on Rattus norvegicus [4]. Also, the Hypnosis potentiation in the data set filed under Rattus norvegicus [9] stood at 54.02%. The Sleeping time in the data set with Rattus norvegicus [15] amounted to 100.5 min.
As for `CCCC(C)C1(CC)C(=O)N=C([O-])NC1=O.[Na+]` (stereo unspecified) [PENTOBARBITAL SODIUM], in the data set on Rattus norvegicus [16], the Sleeping time is given as 65.25 min.
Consider `Cc1ccc(Nc2ns/c(=N\C(S)=N\c3ccc(Cl)cc3)n2-c2ccc(C)cc2)cc1`, for which the ED50 entry is “no protection up to 120 mg/kg” in the data set with Rattus norvegicus [1] and 46.7 mg/kg in the data set listed under Rattus norvegicus [8]. The compound also returned a 50% lethal dose (LD50) in [7] of 300 mg/kg. Moreover, the Protection was 50% in the data set filed under Rattus norvegicus [3] and 0% in the data set on Rattus norvegicus [4]. The Hypnosis potentiation in the data set filed under Rattus norvegicus [9] is reported as 15.63%. In the data set on Rattus norvegicus [11], this compound registered a Sleeping time of 75.45 min. In addition, in [10], the selectivity ratio came to 6.42.

The ED50 is the midpoint of the dose-response relation. As a reminder, the LD50 is the dose expected to kill half of the subjects tested.
